Assay [1] deals with MDA-MB-231. The assay can be described thus: cells. The following applies: Homo sapiens.
Assay [2] deals with MCF7. The assay can be described thus: cells. As to conditions: Homo sapiens.
Assay [3] deals with T1, Poly [ADP-ribose] polymerase 1 (Homo sapiens, UniProt P09874). The assay is described as follows: Inhibition of recombinant human full length C-terminal His-tagged PARP1 expressed in Sf9 insect cells preincubated for 15 mins followed by NAD+ addition and measured after 40 mins by fluorescence based assay.
In assay [4] the test system is MDA-MB-436.
The subject of assay [5] is MDA-MB-436. The assay can be described thus: Effect on whole cell PARP1 protein levels in MMS treated human MDA-MB-436 cells harboring BRCA1 mutation at 5 to 45 uM incubated for 4 hrs by Western blot analysis. Format: functional, cell-based. In general terms: A western blot detects proteins with antibodies after separation by electrophoresis.
Assay [6] concerns the target T1, Poly [ADP-ribose] polymerase 1. The assay is described as follows: Inhibition of PARP1 in MMS treated human MDA-MB-436 cells harboring BRCA1 mutation assessed as increase in PARP1 trapping in chromatin-bound fraction incubated for 4 hrs by Western blot analysis. Type of assay: cell-based.
Assay [7] has the same target. The assay is described as follows: Inhibition of PARP1 in human MDA-MB-436 cells harboring BRCA1 mutation assessed as decrease in PAR expression level incubated for 3 hrs by Western blot analysis. Type of assay: cell-based.
Assay [8] has the same target. The assay can be described thus: Inhibition of PARP1 in human MDA-MB-231 cells assessed as decrease in PAR expression level incubated for 3 hrs by Western blot analysis. Format: cell-based.
The target is the same in assay [9]. The assay can be described thus: Inhibition of PARP1 in human MDA-MB-436 cells harboring BRCA1 mutation assessed as increase in gammaH2AX expression level incubated for 24 hrs by Western blot analysis. Type of assay: cell-based.
The target is the same in assay [10]. The assay can be described thus: Inhibition of PARP1 in human MDA-MB-231 cells assessed as increase in gammaH2AX expression level incubated for 24 hrs by Western blot analysis. Format: cell-based.

Activity calls are given as the source filed them. No cut-off for these calls is given here.

T1 sequence (P09874 whole entry): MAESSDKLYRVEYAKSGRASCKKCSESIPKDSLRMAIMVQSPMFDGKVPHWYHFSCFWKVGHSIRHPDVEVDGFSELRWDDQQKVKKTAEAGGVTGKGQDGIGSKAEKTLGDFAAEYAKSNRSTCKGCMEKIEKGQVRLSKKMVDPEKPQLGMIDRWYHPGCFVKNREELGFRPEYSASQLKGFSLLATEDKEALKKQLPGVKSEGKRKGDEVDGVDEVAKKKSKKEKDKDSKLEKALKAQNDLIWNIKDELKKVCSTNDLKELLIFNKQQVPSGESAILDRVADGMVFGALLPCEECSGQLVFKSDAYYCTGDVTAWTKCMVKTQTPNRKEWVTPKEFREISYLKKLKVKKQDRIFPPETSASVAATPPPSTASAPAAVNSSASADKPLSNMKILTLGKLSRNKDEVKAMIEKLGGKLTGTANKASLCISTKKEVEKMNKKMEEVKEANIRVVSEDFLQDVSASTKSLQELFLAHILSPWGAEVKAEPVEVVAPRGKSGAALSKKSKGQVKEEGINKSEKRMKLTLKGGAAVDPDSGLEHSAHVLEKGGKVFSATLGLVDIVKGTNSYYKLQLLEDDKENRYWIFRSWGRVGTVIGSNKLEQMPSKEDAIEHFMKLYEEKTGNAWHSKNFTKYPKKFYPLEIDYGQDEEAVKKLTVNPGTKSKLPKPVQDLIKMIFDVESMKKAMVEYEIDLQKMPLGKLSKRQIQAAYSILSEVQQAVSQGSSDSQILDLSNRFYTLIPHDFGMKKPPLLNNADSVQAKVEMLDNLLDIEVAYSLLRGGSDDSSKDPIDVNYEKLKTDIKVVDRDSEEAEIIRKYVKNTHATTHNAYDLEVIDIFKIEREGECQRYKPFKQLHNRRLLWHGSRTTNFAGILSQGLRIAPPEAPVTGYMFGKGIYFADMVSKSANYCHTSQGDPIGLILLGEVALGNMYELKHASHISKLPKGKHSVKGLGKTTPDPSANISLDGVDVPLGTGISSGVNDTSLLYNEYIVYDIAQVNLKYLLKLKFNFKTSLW

As a reminder, the IC50 is the concentration needed to halve the response being measured. Take `COc1c(Cl)c(O)c(Cl)c(C)c1-c1cc(O)c(Cl)c2cc3c(c(O)c12)C(=O)c1c(O)c(Cl)c(O)c(Cl)c1C3(C)C`: the IC50 was above 40 µM in assay [1], 28.8 µM in assay [2], 1.82 µM in assay [3] and 4.95 µM in assay [4].

For the molecule `COc1cc(O)c(Cl)c(C)c1-c1cc(O)c(Cl)c2cc3c(c(O)c12)C(=O)c1c(O)c(Cl)c(O)c(Cl)c1C3(C)C`, the IC50 in assay [1] is above 40 µM; in [2] it was above 40 µM; in [3] it was 5.88 µM; in assay [4] it was 9.27 µM.

For `COc1cc(O)cc(C)c1-c1cc(O)cc2cc3c(c(O)c12)C(=O)c1c(cc(O)c(Cl)c1O)C3(C)C`, the 50% inhibitory concentration (IC50) is above 40 µM in [1], above 40 µM in assay [2], 15.4 µM in assay [3] and 20.2 µM in [4].

Regarding `COc1cc(O)c(Cl)c(C)c1-c1cc(O)cc2cc3c(c(O)c12)C(=O)c1c(O)cc(O)cc1C3(C)C`, the 50% inhibitory concentration (IC50) in [1] is above 40 µM; in assay [2] it was above 40 µM; in assay [3], 4.86 µM; in assay [4], 10.5 µM.

On to `COc1cc(O)c(Cl)c(C)c1-c1cc(O)cc2cc3c(c(O)c12)C(=O)c1c(cc(O)c(Cl)c1O)C3(C)C`, for which the IC50 in [1] was determined as 18.8 µM; in assay [2], 16.5 µM; in assay [3], 8.84 µM; in [4], 9.2 µM.

On to `COc1cc(O)c(Cl)c(C)c1-c1cc(O)c(Cl)c2cc3c(c(O)c12)C(=O)c1c(cc(O)c(Cl)c1O)C3(C)C`, for which the IC50 in [1] is above 40 µM; in assay [2] it was above 40 µM; in assay [3], 6.56 µM; in assay [4] it was 8.61 µM.

With `COc1cc(O)c(Cl)c(C)c1-c1cc(O)c(Br)c2cc3c(c(O)c12)C(=O)c1c(O)cc(O)cc1C3(C)C`, the half-maximal inhibitory concentration (IC50) in assay [1] is above 40 µM; in [2], above 40 µM; in assay [3], 4.59 µM; in assay [4], 12.9 µM.

On to `O=C(c1cc(Cc2n[nH]c(=O)c3ccccc23)ccc1F)N1CCN(C(=O)C2CC2)CC1` [OLAPARIB], for which the IC50 was above 40 µM in [1], above 40 µM in assay [2] and 0.22 µM in [4].

Turning to `COc1cc(O)c(Cl)c(C)c1-c1cc(O)cc2cc3c(c(O)c12)C(=O)c1c(O)c(Cl)c(O)c(Cl)c1C3(C)C`, the IC50 in assay [1] was above 40 µM; in [2], above 40 µM; in [3] it was 0.95 µM; in assay [4], 3.82 µM. Further, in assay [5], the result was inactive. The inhibition result in assay [6], in assay [7], in assay [8], in assay [9] and in assay [10] was “Dose-dependent effect” throughout.
